Data taken from patent US20100317524A1, “Sulfonylureas” (Bayer CropScience AG, priority 2005, published 2010).

Tests used:
[1] = tested on: weed plants such as Sinapis alba, Chrysanthemum segetum, Avena sativa, Stellaria media, Echinochloa crus-galli, Lolium multiflorum, Setaria viridis, Abutilon …; assay: Pre-emergence effect on weeds (greenhouse pot test, visual scoring); format: in vivo; details: applied pre-emergence at a rate of 0.3 kg or less of active substance per hectare; visual scoring after 3 to 4 weeks vs untreated controls
Description: Seeds or sections of rhizome from monocot and dicot weed plants were laid out in sandy loam soil in cardboard pots, and covered with soil. The compounds of the invention, formulated as wettable powders or emulsifiable concentrates, were then applied, in the form of aqueous suspensions or emulsions, at various dosages, onto the surface of the covering earth, at an application rate of 600 to 800 l of water per hectare (converted). Following the treatment, the pots were placed in a greenhouse and maintained under good growth conditions for the weeds. Visual scoring of the plant damage or emergence damage was made when the test plants had emerged, after a test time of 3 to 4 weeks, in comparison to untreated controls.

[2] = tested on: weed plants such as Sinapis alba, Echinochloa crus-galli, Lolium multiflorum, Chrysanthemum segetum, Setaria viridis, Abutilon theophrasti, Amaranthus …; assay: Post-emergence effect on weeds (greenhouse pot test, visual scoring); format: in vivo; details: applied post-emergence (three-leaf stage) at a rate of 0.3 kg or less of active substance per hectare; visual scoring after about 3 to 4 weeks vs untreated controls
Experimental: Seeds or sections of rhizome from monocot and dicot broadleaf weeds were laid out in sandy loam soil in plastic pots, covered with earth, and cultivated in a greenhouse under good growth conditions. Three weeks after sowing, the test plants were treated at the three-leaf stage. The compounds of the invention, formulated as wettable powders or as emulsion concentrates, were sprayed in different dosages onto the green parts of the plants, at an application rate of 600 to 800 l of water per hectare (converted). After the test plants had stood in the greenhouse under optimum growth conditions for a period of about 3 to 4 weeks, the effect of the products was scored visually in comparison to untreated controls.

| Compound | herbicidal action against weed plants, pre-emergence [1] | herbicidal action against weed plants, post-emergence [2] |
| --- | --- | --- |
| COc1nc(C)nc(NC(=O)NS(=O)(=O)c2c(I)cccc2OC(C)C)n1 [Compound 1.182] | very good herbicidal action | very good herbicidal action |
| COc1nc(C)nc(NC(=O)NS(=O)(=O)c2c(I)cccc2OCC(F)(F)F)n1 [Compound 1.342] | very good herbicidal action | very good herbicidal action |
| COc1nc(NC(=O)NS(=O)(=O)c2c(I)cccc2OCC(F)F)nc(OC)n1 [Compound 1.355] | very good herbicidal action | very good herbicidal action |
| CCOc1cccc(I)c1S(=O)(=O)NC(=O)Nc1nc(Cl)cc(OC)n1 [Compound 1.167] | very good herbicidal action | very good herbicidal action |
| Cc1cc(C)nc(NC(=O)NS(=O)(=O)c2c(I)cccc2OS(C)(=O)=O)n1 [Compound 1.471] | very good herbicidal action | very good herbicidal action |
| COc1cc(Cl)nc(NC(=O)NS(=O)(=O)c2c(C)cccc2I)n1 [Compound 1.021] | very good herbicidal action | very good herbicidal action |
| COc1nc(C)nc(NC(=O)NS(=O)(=O)c2c(C)cccc2I)n1 [Compound 1.016] | very good herbicidal action | very good herbicidal action |
| CCOc1cccc(I)c1S(=O)(=O)NC(=O)Nc1nc(OC)nc(OC)n1 [Compound 1.168] | very good herbicidal action | very good herbicidal action |
| COc1nc(NC(=O)NS(=O)(=O)c2c(I)cccc2OC(C)C)nc(OC)n1 [Compound 1.191] | very good herbicidal action | very good herbicidal action |
| COc1nc(C)nc(NC(=O)NS(=O)(=O)c2c(I)cccc2OCC2CC2)n1 [Compound 1.233] | very good herbicidal action | very good herbicidal action |
| COc1nc(C)nc(NC(=O)NS(=O)(=O)c2c(I)cccc2OC(F)(F)F)n1 [Compound 1.306] | very good herbicidal action | very good herbicidal action |
| COc1cc(OC)nc(NC(=O)NS(=O)(=O)c2c(I)cccc2C(F)(F)F)n1 [Compound 1.091] | very good herbicidal action | very good herbicidal action |
| COc1nc(C)nc(NC(=O)NS(=O)(=O)c2c(OC)ccc(Cl)c2I)n1 [Compound 1.599] | very good herbicidal action | very good herbicidal action |
| COc1cc(Cl)nc(NC(=O)NS(=O)(=O)c2c(F)cccc2I)n1 [Compound 1.004] | very good herbicidal action | very good herbicidal action |
| Cc1cc(C)nc(NC(=O)NS(=O)(=O)c2c(F)cccc2I)n1 [Compound 1.003] | very good herbicidal action | very good herbicidal action |
| CCC(C)Oc1cccc(I)c1S(=O)(=O)NC(=O)Nc1nc(C)cc(C)n1 (centres unmarked) [Compound 1.558] | very good herbicidal action | very good herbicidal action |

| Compound | herbicidal action against weed plants, pre-emergence [1] | herbicidal action against weed plants, post-emergence [2] |
| --- | --- | --- |
| Cc1cc(C)nc(NC(=O)NS(=O)(=O)c2c(I)cccc2OCC(F)(F)F)n1 [Compound 1.343] | very good herbicidal action | very good herbicidal action |
| COc1nc(NC(=O)NS(=O)(=O)c2c(I)cccc2OS(C)(=O)=O)nc(OC)n1 [Compound 1.476] | very good herbicidal action | very good herbicidal action |
| CCCCOc1cccc(I)c1S(=O)(=O)NC(=O)Nc1nc(OC)nc(OC)n1 [Compound 1.556] | very good herbicidal action | very good herbicidal action |
| COc1cc(OC)nc(NC(=O)NS(=O)(=O)c2c(C)cccc2I)n1 [Compound 1.012] | very good herbicidal action | very good herbicidal action |
| COc1cc(Cl)nc(NC(=O)NS(=O)(=O)c2c(I)cccc2OCC(F)(F)C(F)(F)F)n1 [Compound 1.372] | very good herbicidal action | very good herbicidal action |
| COc1cc(OC)nc(NC(=O)NS(=O)(=O)c2c(I)cccc2OC)n1 [Compound 1.146, N-{[(4,6-Dimethoxypyrimidin-2-yl)amino]carbonyl}-2-iodo-6-methoxybenzenesulfonamide] | very good herbicidal action | very good herbicidal action |
| Cc1cc(C)nc(NC(=O)NS(=O)(=O)c2c(I)cccc2OCC(F)(F)C(F)(F)F)n1 [Compound 1.371] | very good herbicidal action | very good herbicidal action |
| COc1cc(Cl)nc(NC(=O)NS(=O)(=O)c2c(I)cccc2OCC2CC2)n1 [Compound 1.238] | very good herbicidal action | very good herbicidal action |
| COc1cc(OC)nc(NC(=O)NS(=O)(=O)c2c(I)cccc2OS(C)(=O)=O)n1 [Compound 1.463] | very good herbicidal action | very good herbicidal action |
| Cc1cc(C)nc(NC(=O)NS(=O)(=O)c2c(I)cccc2OCC2CC2)n1 [Compound 1.237] | very good herbicidal action | very good herbicidal action |
| COc1nc(NC(=O)NS(=O)(=O)c2c(I)cccc2OC(F)(F)F)nc(OC)n1 [Compound 1.315] | very good herbicidal action | very good herbicidal action |
| COc1cc(Cl)nc(NC(=O)NS(=O)(=O)c2c(I)cccc2OC(F)F)n1 [Compound 1.330] | very good herbicidal action | very good herbicidal action |
| CCCOc1cccc(I)c1S(=O)(=O)NC(=O)Nc1nc(C)cc(C)n1 [Compound 1.173] | very good herbicidal action | very good herbicidal action |
| COc1cc(OC)nc(NC(=O)NS(=O)(=O)c2c(I)cccc2OC(C)C)n1 [Compound 1.178] | very good herbicidal action | very good herbicidal action |
| COc1cc(Cl)nc(NC(=O)NS(=O)(=O)c2c(I)cccc2OC(F)(F)F)n1 [Compound 1.311] | very good herbicidal action | very good herbicidal action |
